{"source": "patent US5610025A", "about": "“Inhibition of interfering endogenous enzyme activity in assays of biological fluids” (Actimed Laboratories, Inc., priority 1993, dated 1997)", "assay_type_in_all_cases": "biochemical", "key": {"catalase [1]": {"target": "T1, catalase (Homo sapiens, UniProt P04040)", "T1 sequence (P04040 2-527 limits assumed)": "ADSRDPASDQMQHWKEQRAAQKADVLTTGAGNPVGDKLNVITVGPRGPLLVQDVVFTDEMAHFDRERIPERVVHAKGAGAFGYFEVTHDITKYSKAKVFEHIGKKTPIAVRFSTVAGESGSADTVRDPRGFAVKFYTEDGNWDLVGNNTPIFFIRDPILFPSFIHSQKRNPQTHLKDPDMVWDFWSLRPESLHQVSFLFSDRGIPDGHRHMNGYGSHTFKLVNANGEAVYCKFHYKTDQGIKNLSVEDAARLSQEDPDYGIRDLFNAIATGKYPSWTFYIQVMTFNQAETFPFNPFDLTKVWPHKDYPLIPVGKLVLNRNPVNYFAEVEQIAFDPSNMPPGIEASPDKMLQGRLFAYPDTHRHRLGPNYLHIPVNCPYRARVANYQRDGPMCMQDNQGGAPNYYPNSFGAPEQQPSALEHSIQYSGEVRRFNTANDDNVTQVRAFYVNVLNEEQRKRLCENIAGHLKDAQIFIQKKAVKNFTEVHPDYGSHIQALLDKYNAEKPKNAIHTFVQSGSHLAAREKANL", "assay": "Catalase inhibitor screening, aqueous hydrogen peroxide samples with added catalase, dye indicator/peroxidase system, absorbance at 514 nm"}, "catalase [2]": {"target": "T1, catalase", "assay": "Catalase inhibitor screening, aqueous cholesterol sample 50 mg/dL with catalase, reporter system Primaquine/MBTH", "details": "aqueous cholesterol 50 mg/dL with catalase, inhibitor 0.5 mM", "procedure": "(§1) The inhibitors were added along with the extra catalase, and spectrophotometric measurements at 514 nm were obtained.\n(§2) The percent recovery of absorbance is defined as follows: [formula]\n(§3) In the following tables, the concentrations of inhibitor substances are expressed as the final concentration in the reaction system after accounting for dilution factors."}, "catalase [3]": {"target": "T1, catalase", "assay": "Catalase inhibitor screening, plasma cholesterol sample with catalase, reporter system Primaquine/MBTH", "details": "inhibitor 0.5 mM", "procedure": "as §1, §2, §3"}}, "note": "“And” between values parts separate entries of the source, which are not always exact repeats. Equal values may be shown once. Where a name gives a salt, the structure may show the parent alone."}
{"smiles": "O=[N+]([O-])[O-].O=[N+]([O-])[O-].[Cu+2]", "note": "[Cupric nitrate]", "values": [{"measurement": "% Recovery (of absorbance)", "setting": "catalase [1]", "value": 85, "unit": "%"}]}
{"smiles": "CCO", "note": "[Ethanol]", "values": [{"measurement": "% Recovery (of absorbance)", "setting": "catalase [1]", "value": 6, "unit": "%"}]}
{"smiles": "O=CO", "note": "[Sodium formate]", "values": [{"measurement": "% Recovery (of absorbance)", "setting": "catalase [1]", "value": 8, "unit": "%"}]}
{"smiles": "CO", "note": "[Methanol]", "values": [{"measurement": "% Recovery (of absorbance)", "setting": "catalase [1]", "value": 7, "unit": "%"}]}
{"smiles": "[Cl][Ni][Cl]", "note": "[Nickel (II) chloride]", "values": [{"measurement": "% Recovery (of absorbance)", "setting": "catalase [1]", "value": 60, "unit": "%"}]}
{"smiles": "Cl.NO", "note": "[Hydroxylamine HCl]", "values": [{"measurement": "% Recovery (of absorbance)", "setting": "catalase [2]", "value": 98, "unit": "%"}, {"measurement": "% Recovery (of absorbance)", "setting": "catalase [3]", "value": 98, "unit": "%"}, {"measurement": "% Recovery (of absorbance)", "setting": "catalase [1]; HCl", "value": "96% and 95% and 91% and 92%"}]}
{"smiles": "[N-]=[N+]=[N-]", "note": "[Sodium azide]", "values": [{"measurement": "effectiveness as inhibitor of catalase activity (in words)", "setting": "catalase [1]", "value": "most effective inhibitors of catalase activity"}]}
{"smiles": "[F-].[Na+]", "note": "[Sodium fluoride]", "values": [{"measurement": "% Recovery (of absorbance)", "setting": "catalase [1]", "value": 7, "unit": "%"}]}
{"smiles": "NO.NO.O=S(=O)(O)O", "note": "[Hydroxylamine sulfate]", "values": [{"measurement": "% Recovery (of absorbance)", "setting": "catalase [2]", "value": 96, "unit": "%"}, {"measurement": "% Recovery (of absorbance)", "setting": "catalase [3]", "value": 99, "unit": "%"}, {"measurement": "% Recovery (of absorbance)", "setting": "catalase [1]", "value": "99% and 95% and 90% and 97% and 91%"}]}
{"smiles": "O=NO", "note": "[Sodium nitrite]", "values": [{"measurement": "% Recovery (of absorbance)", "setting": "catalase [1]", "value": 30, "unit": "%"}]}
{"smiles": "Oc1cccc(O)c1", "note": "[Resorcinol]", "values": [{"measurement": "% Recovery (of absorbance)", "setting": "catalase [1]; peroxide with catalase, inhibitor concentration 0.5 mM", "value": 50, "unit": "%"}, {"measurement": "% Recovery (of absorbance)", "setting": "catalase [1]; peroxide with catalase, inhibitor concentration 5 mM", "value": 57, "unit": "%"}, {"measurement": "% Recovery (of absorbance)", "setting": "catalase [1]; peroxide with catalase, inhibitor concentration 40 mM", "value": 79, "unit": "%"}]}
